Assay results as given in patent US20150038464A1, “METHODS OF INCREASING LIGHT RESPONSIVENESS IN A SUBJECT WITH RETINAL DEGENERATION” (The United States Government as represented by the …, priority 2012, published 2015).

How the values were obtained:
P23H rat RGCs [1] = assay: Light-evoked responses (intensity-response curves) of retinal ganglion cells recorded extracellularly from isolated P23H rat retina; assay type: cell-based; settings: 16 P23H rat RGCs, 500 nM JNJ16259685
P23H rat RGCs [2] = assay: as above; assay type: cell-based; settings: 500 nM JNJ16259685
Protocol: Sprague-Dawley (SD) rats (age range 13-44 weeks) and P23H-line 1 homozygous rats (age range 23-42 weeks) were used in this study. Both the SD rats and P23H rats were bred and housed in the same facility. Breeding pairs of SD rats were obtained from Harlan Laboratories (Indianapolis, Ind.). Breeding pairs of P23H-line 1 homozygous rats were generously donated by Dr. Matthew LaVail (University of California San Francisco, Calif.). The room light was kept on a 12 hour light/dark cycle using standard fluorescent lighting. During the light cycle the illumination at the level of the cages was 100-200 lux. All animal care procedures and experimental methods were approved by the appropriate Institutional Animal Care and Use Committee.
On the day of an experiment, a rat was euthanized with sodium pentobarbital (150 mg/kg, i.p.), and the eyes were removed and hemisected under normal room light. […]
Light from a mercury arc lamp illuminated an aperture that was focused on the retina from above through the 4× objective of the microscope. The image produced on the retina was either a 250-μm or 1.5-mm diameter spot, which was centered on the recorded RGC. […] The intensity of the unattenuated light stimulus on the retina measured with a spectroradiometer (ILT900-R, International Light Technologies, Peabody, Mass.) was 8.5×10^17 photons/cm^2/s. […]

SMILES: CO[C@H]1CC[C@@H](C(=O)c2ccc3nc4c(cc3c2)CCCO4)CC1 [JNJ16259685, 3,4-dihydro-2H-pyranol[2,3-b]quinolin-7-yl-(cis-4-methoxycyclohexyl)-methanone]
- dynamic operating range with drug (P23H rat RGCs [1]; mean±SD, before drug 0.89±0.41): 1.05±0.42 log unit
- maximum peak response with drug (P23H rat RGCs [1]; mean±SD, before drug 162±65): 178±64 spikes/s
- factor by which the light the cells responded to was less intense than without drug (P23H rat RGCs [1]): ~4 fold
- increase in dynamic operating range (P23H rat RGCs [1]; not significant (P=0.239)): 18%
- average increase in light sensitivity (P23H rat RGCs [2]; 16 P23H rat RGCs (15 ON-center, one OFF-center)): 0.56 log units
- increase in maximum peak response (P23H rat RGCs [2]; 16 P23H rat RGCs, P=0.007): 9.9%
